Data: PubChem BioAssay AID1918932 (Molecular Pharmacology Branch, DTP, NCI, 2023)
“And” between values parts separate entries of the source, which are not always exact repeats. Equal values may be shown once.

Tested on: 171881-019-R-J1-PDC complex spheroid viability
Assay: Anticancer human tumor 171881-019-R-J1-PDC patient-derived invasive breast carcinoma cell line growth inhibition
Conditions: for viability, T/C: stronger effect = lower value
Outline: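 Drug combinations with the LSD1 inhibitor iadademstat tested on tumor cells co-cultured as spheroids with endothelial cells and mesenchymal stem cells. Concentrations descended in half-log increments from clinical Cmax or 10 microM.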

[1] = curve of first compound, second compound 0.1 µM
[2] = curve of first compound, second compound 0.316 µM
[3] = curve of first compound, second compound 1 µM
[4] = curve of first compound, second compound 3.16 µM
[5] = curve of first compound, second compound 10 µM
[6] = second compound 0.1 µM, first compound 0.000316 µM
[7] = second compound 0.1 µM, first compound 0.001 µM
[8] = second compound 0.1 µM, first compound 0.00316 µM
[9] = second compound 0.1 µM, first compound 0.01 µM
[10] = second compound 0.1 µM, first compound 0.0316 µM
[11] = second compound 0.1 µM, first compound 0.1 µM
[12] = second compound 0.316 µM, first compound 0.000316 µM
[13] = second compound 0.316 µM, first compound 0.001 µM
[14] = second compound 0.316 µM, first compound 0.00316 µM
[15] = second compound 0.316 µM, first compound 0.01 µM
[16] = second compound 0.316 µM, first compound 0.0316 µM
[17] = second compound 0.316 µM, first compound 0.1 µM
[18] = second compound 1 µM, first compound 0.000316 µM
[19] = second compound 1 µM, first compound 0.001 µM
[20] = second compound 1 µM, first compound 0.00316 µM
[21] = second compound 1 µM, first compound 0.01 µM
[22] = second compound 1 µM, first compound 0.0316 µM
[23] = second compound 1 µM, first compound 0.1 µM
[24] = second compound 3.16 µM, first compound 0.000316 µM
[25] = second compound 3.16 µM, first compound 0.001 µM
[26] = second compound 3.16 µM, first compound 0.00316 µM
[27] = second compound 3.16 µM, first compound 0.01 µM
[28] = second compound 3.16 µM, first compound 0.0316 µM
[29] = second compound 3.16 µM, first compound 0.1 µM
[30] = second compound 10 µM, first compound 0.000316 µM
[31] = second compound 10 µM, first compound 0.001 µM
[32] = second compound 10 µM, first compound 0.00316 µM
[33] = second compound 10 µM, first compound 0.01 µM
[34] = second compound 10 µM, first compound 0.0316 µM
[35] = second compound 10 µM, first compound 0.1 µM
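Also: spheroids exposed to agents for 7 days after 3 days growth.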

In the case of `CC[C@@]1(O)C(=O)OCc2c1cc1n(c2=O)Cc2cc3c(CN(C)C)c(O)ccc3nc2-1` + NC1CCC(NC2CC2c2ccccc2)CC1, the IC50 [1] is reported as over 0.1 µM, the IC50 [2] is reported as over 0.1 µM and the IC50 [3] is reported as over 0.1 µM. The IC50 [4] was over 0.1 µM, the IC50 [5] was over 0.1 µM and the viability, T/C [6] was 83.9%. For the same compound, the viability, T/C [7] was 91.8%, the viability, T/C [8] was 122% and the viability, T/C [9] was 74.7%. For the same compound, the viability, T/C [10] was 69.5%, the viability, T/C [11] was 50.6% and the viability, T/C [12] was 80.2%. The viability, T/C [13] was 86.1%, the viability, T/C [14] was 125% and the viability, T/C [15] was 71.1%. It also gave a viability, T/C [16] of 67.3%, a viability, T/C [17] of 56.5% and a viability, T/C [18] of 87.5%. It also gave a viability, T/C [19] of 89.4%, a viability, T/C [20] of 128% and a viability, T/C [21] of 77.6%. It also gave a viability, T/C [22] of 72.4%, a viability, T/C [23] of 59% and a viability, T/C [24] of 95.2%. It also gave a viability, T/C [25] of 94.5%, a viability, T/C [26] of 138% and a viability, T/C [27] of 83.1%. For the same compound, the viability, T/C [28] was 75.8%, the viability, T/C [29] was 62.3% and the viability, T/C [30] was 88%. The viability, T/C [31] was 93.7%, the viability, T/C [32] was 133% and the viability, T/C [33] was 92.7%. It also gave a viability, T/C [34] of 90.7% and a viability, T/C [35] of 76.4%.
Compound `CC1(C)CCC(CN2CCN(c3ccc(C(=O)NS(=O)(=O)c4ccc(NCC5CCOCC5)c([N+](=O)[O-])c4)c(Oc4cnc5[nH]ccc5c4)c3)CC2)=C(c2ccc(Cl)cc2)C1` + NC1CC1c1ccc(-c2cccc(O)c2)cc1 has an IC50 [1] of 1.41 µM, an IC50 [2] of 1.49 µM and an IC50 [3] of 1.45 µM. It also gave an IC50 [4] of 1.45 µM, an IC50 [5] of 1.3 µM and a viability, T/C [10] of 101%. It also gave a viability, T/C [11] of 97.9%, a viability, T/C (second compound 0.1 µM, first compound 0.316 µM) of 87.8% and a viability, T/C (second compound 0.1 µM, first compound 1 µM) of 63%. The viability, T/C (second compound 0.1 µM, first compound 3.16 µM) was 21.7%, the viability, T/C (second compound 0.1 µM, first compound 10 µM) was 9.08% and the viability, T/C [16] was 103%. The viability, T/C [17] was 95.7%, the viability, T/C (second compound 0.316 µM, first compound 0.316 µM) was 92.3% and the viability, T/C (second compound 0.316 µM, first compound 1 µM) was 64.4%. It also gave a viability, T/C (second compound 0.316 µM, first compound 3.16 µM) of 22.9%, a viability, T/C (second compound 0.316 µM, first compound 10 µM) of 4.28% and a viability, T/C [22] of 103%. For the same compound, the viability, T/C [23] was 102%, the viability, T/C (second compound 1 µM, first compound 0.316 µM) was 88.4% and the viability, T/C (second compound 1 µM, first compound 1 µM) was 64.2%. It also gave a viability, T/C (second compound 1 µM, first compound 3.16 µM) of 22.3%, a viability, T/C (second compound 1 µM, first compound 10 µM) of 4% and a viability, T/C [28] of 94.5%. For the same compound, the viability, T/C [29] was 92.7%, the viability, T/C (second compound 3.16 µM, first compound 0.316 µM) was 86.3% and the viability, T/C (second compound 3.16 µM, first compound 1 µM) was 63.2%. The viability, T/C (second compound 3.16 µM, first compound 3.16 µM) was 22.8%, the viability, T/C (second compound 3.16 µM, first compound 10 µM) was 4.22% and the viability, T/C [34] was 84.5%. It also gave a viability, T/C [35] of 82.5%, a viability, T/C (second compound 10 µM, first compound 0.316 µM) of 77.1% and a viability, T/C (second compound 10 µM, first compound 1 µM) of 59%. The viability, T/C (second compound 10 µM, first compound 3.16 µM) was 21.2% and the viability, T/C (second compound 10 µM, first compound 10 µM) was 3.96%.
With `CCc1c2c(nc3ccc(O)cc13)-c1cc3c(c(=O)n1C2)COC(=O)[C@]3(O)CC` the viability, T/C (compound 0.000949 µM) was 59.6% and 33.9%, the viability, T/C (compound 0.003 µM) was 43% and 40.4% and the viability, T/C (compound 0.00949 µM) was 26.6% and 22%. For the same compound, the viability, T/C (compound 0.03 µM) was 19.3% and 18.7%, the viability, T/C (compound 0.0949 µM) was 10.9% and 21% and the viability, T/C (compound 0.3 µM) was 6.24% and 21.4%. The IC50 (curve of compound) was 0.0018 µM and < 0.000949 µM.
In the case of `CC(C)CC(NC(=O)C(Cc1ccccc1)NC(=O)c1cnccn1)B(O)O` (configuration not stated) + NC1CC1c1ccc(-c2cccc(O)c2)cc1, the IC50 [1] is reported as under 0.000316 µM, the IC50 [2] is reported as under 0.000316 µM and the IC50 [3] is reported as under 0.000316 µM. For the same compound, the IC50 [4] was under 0.000316 µM, the IC50 [5] was under 0.000316 µM and the viability, T/C [6] was 22.8%. The viability, T/C [7] was 21.4%, the viability, T/C [8] was 16.4% and the viability, T/C [9] was 10.8%. It also gave a viability, T/C [10] of 9.75%, a viability, T/C [11] of 13.1% and a viability, T/C [12] of 24.2%. It also gave a viability, T/C [13] of 8.57%, a viability, T/C [14] of 10.7% and a viability, T/C [15] of 11%. It also gave a viability, T/C [16] of 13.4%, a viability, T/C [17] of 9.51% and a viability, T/C [18] of 23.8%. For the same compound, the viability, T/C [19] was 18.2%, the viability, T/C [20] was 6.24% and the viability, T/C [21] was 7.73%. The viability, T/C [22] was 7.79%, the viability, T/C [23] was 7.59% and the viability, T/C [24] was 3.29%. For the same compound, the viability, T/C [25] was 4.7%, the viability, T/C [26] was 3.45% and the viability, T/C [27] was 8.88%. For the same compound, the viability, T/C [28] was 6.7%, the viability, T/C [29] was 5.34% and the viability, T/C [30] was 5.61%. The viability, T/C [31] was 8.2%, the viability, T/C [32] was 0.52% and the viability, T/C [33] was 3.61%. The viability, T/C [34] was 8.57% and the viability, T/C [35] was 1.8%.
